Tests used:
[1] = tested on: pAKT, pS6, HER3, pHER3, HER2 in human breast cancer cell lines; experiment: immunoblotting of PI3K/AKT pathway markers; type: cell-based
Procedure: Immunoprecipitation, immunoblotting, and RTK assays were performed according to published methods. Primary antibodies included AKT, pAKT^S473, pAKT^T308, ERK, pERK^T202/Y204, pHER2^Y1248, pHER3^Y1197, pHER3^Y1222, pHER3^Y1289, S6, pS6^S240/244, p27, pRb^S780, FoxO1, FoxO3a, MEK1/2 (Cell Signaling Technology, Danvers, Mass., USA), p85, 4G10 pTyr (Millipore, Billerica, Mass., USA), HER3, CyclinD1, RhoA, HDAC3 (Santa Cruz Biotechnology, Santa Cruz, Calif., USA), PARP (BD Transduction Laboratories), β-actin (Sigma, St. Louis, Mo., USA), and HER2 (Neomarkers, division of Thermo Scientific, Freemenot, Calif., USA). Species-specific horseradish peroxidase-conjugated secondary antibodies were from Promega (Madison Wis., USA). Immunoreactive signals were detected by enhanced chemilluminsecence (Pierce, Rockford, Ill., USA). Phospho-RTK arrays were from R&D Systems (Minneapolis, Minn., USA) total cell lysates were used to hybridize with the arrays according to the manufacturer's instructions.
A panel of breast cancer cell lines with dysregulated PI3K activity was treated with increasing doses of compound A under two- and three-dimensional (2D and 3D) growth conditions. All experiments were conducted in 2.5% FBS-containing media, unless otherwise stated. […] This was further confirmed by immunoblot analysis of biomarkers of cell death and G1-S cell cycle transition in lysates from cells treated for 24 hours with compound A as shown in FIG. 10B.
Experiments were performed to examine the effect of compound A on a more comprehensive panel of molecules in the PI3K and TOR signaling pathways.
Although pHER3 is known to activate the extracellular signal regulated kinase (ERK/MAPK) via its interaction through the adaptor protein Shc, recovery of pERK upon feedback reactivation of HER3 was not detected consistently as shown in FIG. 13A.

HER3 mRNA = experiment: real-time qPCR of HER3 mRNA; type: cell-based, human; settings: BT474, SKBR3, MDA453 cells; 6 μM; time course up to 48 hours
Procedure: FIG. 12B depicts a bar chart of timed HER3 mRNA transcription in BT474 cells which were treated with 2 μM 5J8, 20 μM LY294002, and 50 nM rapamycin for 10 hours prior to RNA isolation and qPCR analysis with HER3-specific primers.

BT474 xenografts = experiment: BT474 xenograft experiments; type: in vivo, mice; settings: trastuzumab 30 mg/kg twice-a-week i.p.; lapatinib 100 mg/kg daily; compound A 100 mg/kg daily gavage; 28 days
Procedure: Tumor volumes were recorded twice-a-week. Each data point represents the mean tumor volume in mm^3±SE of 8 mice per type of treatment. CR=complete response to treatment.
Animal experiments were approved by the Institutional Animal Care Committee of Vanderbilt University Medical Center (VUMC). Mice were housed in the accredited Animal Care Facility of the VUMC. A 17β-estradiol pellet (Innovative Research of America) was injected subcutaneously (s.c.) into each 6- to 7-week-old athymic female mice (Harlan Sprague Dawley, Inc.) the day before tumor cell injection. BT474 cells (3×10^6) mixed 1:1 with Matrigel (BD Biosciences) were injected s.c. into the right flank of each mouse. Tumor diameters were measured with calipers twice-a-week and volume in mm^3 calculated with the formula: volume=width^2×length/2. […] Mice were euthanized after 28 days of treatment.
There was no significant drug-related toxicity in any of the treatment arms.

HER3 protein = experiment: half-life of the HER3 protein with cycloheximide; type: cell-based, human; settings: BT474 cells
Procedure: The half-life of the HER3 protein in absence and presence of compound A was determined using cycloheximide, an inhibitor of protein synthesis. […] Next the levels of HER3 mRNA was examined by qPCR upon inhibition of PI3K over a time course using the approximate IC50 of compound A (6 μM).

[2] = concentrations below 20 μM, 24 hours

COc1ccc(Cl)c(Nc2nc3ccccc3nc2NS(=O)(=O)c2cccc(NC(=O)C(C)(C)N)c2)c1 [Compound A]
cell lines with upregulation of total HER3 and/or pHER3^Y1289 levels ([1]; 24 hours): 6/7 | time to recovery of pAKT and pS6 levels ([1]; BT474, 6 μM): ≤ 6 hours | total HER3, pHER3, pAKT time course ([1]; BT474, 6 μM, 0-72 hours): time-dependent upregulation of total HER3, HER3 phosphorylated at Y1197 and Y1289 | HER3 RNA and protein time course ([1]; BT-474 cells, 6 uM, inhibitor added every 24 hours): time-dependent upregulation of HER3 RNA and protein, beginning at 6 hours and increasing through 72 hours | catalytic activity or autophosphorylation of HER2 ([1]; HER2-overexpressing cells): does not affect the catalytic activity or autophosphorylation of HER2 | P-Erk ([1]; SKBR-3 and MDA-453 cells, like in BT-474): P-Erk is upregulated | pAKT^S473/T308 and pS6^S240/244 ([1]; all cell lines, 0-20 μM): dose-dependent reduction in pAKT^S473/T308 and pS6^S240/244 | PI3K signaling as measured by pAKT^S473 ([1]; all cell lines, 24 hours, 0-20 μM): dose-dependent inhibition of PI3K signaling | cyclin D1, pRB, p27^KIP1 [1, 2]: reduction in cyclin D1 and pRB and an increase in levels of the CDK inhibitor p27^KIP1 | total or cleaved PARP [1, 2]: no change in levels of total or cleaved PARP | HER2-overexpressing cell lines with modest upregulation of total HER2 and/or pHER2^Y1248 ([1]; upon inhibition of PI3K): 5/6 | HER3 mRNA levels (HER3 mRNA): increase in HER3 mRNA that appeared maximal at 6 hours and was maintained up to 48 hours | tumor growth, monotherapy (BT474 xenografts): significantly delayed tumor growth | rate of decay of the HER3 protein (HER3 protein): not significantly altered

Reference: US9011863B2, “Combinations of kinase inhibitors for the treatment of cancer” (Exelixis, Inc., priority 2010, dated 2015)
